Data reported in article PMC4848594 (Viruses, 2016).

What was measured:
[1] = molecular target: T1, RHDV RdRp (Rabbit hemorrhagic disease virus-V351, UniProt P27411); assay: PicoGreen dsRNA de novo polymerase assay; type: biochemical
T1 construct: gene ORF1

[2] = molecular target: RCV RdRp; assay: PicoGreen dsRNA de novo polymerase assay; type: biochemical, Rabbit calicivirus Australia 1 (Lagovirus europaeus GI.4); conditions: 45 μM rGTP, 10 ng/μL poly(C), 2.5 mM MnCl2, pH 7.5, 30 °C, 10 min preincubation; non-nucleoside inhibitor
[3] = molecular target: T1, RHDV RdRp; assay: PicoGreen dsRNA assay, substrate inhibition model; type: biochemical; conditions: substrate inhibition constant; rGTP 0–2.0 mM, 20 ng/μL poly(C), 2.5 mM MnCl2, pH 7.5, 30 °C
[4] = tested on: NoV RdRp; assay: PicoGreen dsRNA assay, Michaelis-Menten model; type: biochemical, Norovirus GII.4 (Norwalk virus, Norovirus norwalkense); conditions: 20 ng/μL poly(C), 2.5 mM MnCl2, 5 mM DTT, pH 7.5, 30 °C; Michaelis-Menten fit
[5] = tested on: RCV RdRp; assay: PicoGreen dsRNA assay, substrate inhibition model; type: biochemical, Rabbit calicivirus Australia 1 (Lagovirus europaeus GI.4); conditions: substrate inhibition constant; rGTP 0–2.0 mM, 20 ng/μL poly(C), 2.5 mM MnCl2, pH 7.5, 30 °C
[6] = tested on: NoV RdRp; assay: PicoGreen dsRNA assay, substrate inhibition model; type: biochemical, Norovirus GII.4 (Norwalk virus, Norovirus norwalkense); conditions: substrate inhibition constant; rGTP 0–2.0 mM, 20 ng/μL poly(C), 2.5 mM MnCl2, pH 7.5, 30 °C
[7] = tested on: RCV RdRp; assay: PicoGreen dsRNA assay, Michaelis-Menten model; type: biochemical, Rabbit calicivirus Australia 1 (Lagovirus europaeus GI.4); conditions: 20 ng/μL poly(C), 2.5 mM MnCl2, 5 mM DTT, pH 7.5, 30 °C; Michaelis-Menten fit
[8] = tested on: Nc1nc2c(ncn2[C@@H]2O[C@H](COP(=O)(O)OP(=O)(O)OP(=O)(O)O)[C@@H](O)[C@H]2O)c(=O)[nH]1; assay: purified protein; conditions: 20 ng/μL poly(C), 2.5 mM MnCl2, 5 mM DTT, pH 7.5, 30 °C, Michaelis-Menten fit

T1 sequence (P27411 1252-1767): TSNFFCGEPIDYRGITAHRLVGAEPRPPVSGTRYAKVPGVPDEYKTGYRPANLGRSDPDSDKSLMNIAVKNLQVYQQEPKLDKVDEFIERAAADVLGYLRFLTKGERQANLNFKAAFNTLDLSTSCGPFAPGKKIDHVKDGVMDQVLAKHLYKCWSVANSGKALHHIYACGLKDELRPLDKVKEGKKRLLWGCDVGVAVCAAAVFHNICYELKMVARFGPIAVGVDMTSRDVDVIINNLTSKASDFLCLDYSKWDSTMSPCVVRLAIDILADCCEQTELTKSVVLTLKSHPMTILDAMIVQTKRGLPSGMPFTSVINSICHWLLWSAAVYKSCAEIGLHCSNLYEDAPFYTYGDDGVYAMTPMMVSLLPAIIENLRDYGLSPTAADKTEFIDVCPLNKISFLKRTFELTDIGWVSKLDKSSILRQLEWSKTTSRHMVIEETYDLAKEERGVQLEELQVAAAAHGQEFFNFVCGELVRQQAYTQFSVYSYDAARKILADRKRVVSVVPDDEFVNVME

Molecule: Cc1nc(-c2ccccc2)sc1C(=O)Nc1sc2c(c1C#N)CCC2 [NIC02]
- IC50 [1]: 19.9 µM
- IC50 [2]: 13.5 µM

Molecule: Nc1nc2c(ncn2[C@@H]2O[C@H](COP(=O)(O)OP(=O)(O)OP(=O)(O)O)[C@@H](O)[C@H]2O)c(=O)[nH]1 [rGTP]
- RHDV RdRp [3]: 2.1 ± 0.4 mM
- Km [4]: 77.7 ± 14.5 µM
- RCV RdRp [5]: 1.7 ± 0.2 mM
- NoV RdRp [6]: 0.6 ± 0.2 mM
- Km [7]: 5.7 ± 0.7 µM

Molecule: RHDV RdRp (Rabbit hemorrhagic disease virus-V351)
- Km [8]: 14.6 ± 2.4 µM
